Data published in the supplement of paper PMC10307832.

Key:
Assay in all cases: relative viability (nuclei count vs DMSO), 5 days (fraction); higher = more cells survive
[1] = compound: O=C(NCCCNc1nc(Nc2cccc(NC(=O)N3CCCC3)c2)ncc1I)c1cccs1 [BX 795] + C[C@@H](Oc1cc(-c2cnn(C3CCNCC3)c2)cnc1N)c1c(Cl)ccc(F)c1Cl [Crizotinib] (partner 1 µM)
How it was run: (§1)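 Medians of duplicate plates are given as relative viability. That measure is the nuclei count in treated wells divided by the count in vehicle wells. Counts were taken on 4× images of lung cancer cell lines in 1536-well plates, 5 days after pin-tool dosing the day after seeding with one drug alone or a fixed anchor-drug dose plus five library-drug doses (not always all listed) in √10 steps.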

[2] = compound: O=C(NCCCNc1nc(Nc2cccc(NC(=O)N3CCCC3)c2)ncc1I)c1cccs1 [BX 795] + Cc1cc(Nc2cc(N3CCN(C)CC3)nc(Sc3ccc(NC(=O)C4CC4)cc3)n2)n[nH]1 [Tozasertib] (partner 0.1 µM)
How it was run: as §1

[3] = compound: O=C(NCCCNc1nc(Nc2cccc(NC(=O)N3CCCC3)c2)ncc1I)c1cccs1 [BX 795] + C[C@]1(O)C[C@@H](c2nc(-c3ccc4ccc(-c5ccccc5)nc4c3)c3c(N)nccn32)C1 [Linsitinib] (partner 1 µM)
How it was run: as §1

[4] = compound: O=C(NCCCNc1nc(Nc2cccc(NC(=O)N3CCCC3)c2)ncc1I)c1cccs1 [BX 795] + Cc1nc(Nc2ncc(C(=O)Nc3c(C)cccc3Cl)s2)cc(N2CCN(CCO)CC2)n1 [Dasatinib] (partner 0.075 µM)
How it was run: as §1

[5] = compound: O=C(NCCCNc1nc(Nc2cccc(NC(=O)N3CCCC3)c2)ncc1I)c1cccs1 [BX 795] + COc1cccc2cc(-c3nc([C@H]4CC[C@H](C(=O)O)CC4)n4ncnc(N)c34)[nH]c12 [OSI-027] (partner 0.5 µM)
How it was run: as §1

Row | Cell Line | relative viability ([1]; first compound 0.04 µM) | relative viability ([1]; first compound 0.1265 µM) | relative viability ([1]; first compound 0.4 µM) | relative viability ([1]; first compound 1.265 µM) | relative viability ([2]; first compound 0.04 µM) | relative viability ([2]; first compound 0.1265 µM) | relative viability ([2]; first compound 0.4 µM) | relative viability ([2]; first compound 1.265 µM) | relative viability ([3]; first compound 0.04 µM) | relative viability ([3]; first compound 0.1265 µM) | relative viability ([3]; first compound 0.4 µM) | relative viability ([3]; first compound 1.265 µM) | relative viability ([4]; first compound 0.04 µM) | relative viability ([4]; first compound 0.1265 µM) | relative viability ([4]; first compound 0.4 µM) | relative viability ([4]; first compound 1.265 µM) | relative viability ([5]; first compound 0.04 µM) | relative viability ([5]; first compound 0.1265 µM) | relative viability ([5]; first compound 0.4 µM) | relative viability ([5]; first compound 1.265 µM)
1 | LU99A | 0.646 | 0.593 | 0.455 | 0.361 | 0.3 | 0.286 | 0.287 | 0.261 | 0.552 | 0.631 | 0.467 | 0.225 | 0.78 | 0.571 | 0.472 | 0.364 | 0.306 | 0.296 | 0.287 | 0.257
2 | HCC-78 | 0.413 | 0.354 | 0.355 | 0.318 | 0.472 | 0.317 | 0.345 | 0.386 | 0.624 | 0.657 | 0.534 | 0.554 | 0.462 | 0.379 | 0.364 | 0.392 | 0.363 | 0.369 | 0.393 | 0.363
3 | PC-3 [JPC-3] | 1.04 | 0.993 | 1.06 | 0.946 | 0.931 | 0.851 | 0.881 | 0.872 | 1.02 | 1.02 | 0.979 | 0.976 | 1.02 | 1.04 | 0.979 | 0.975 | 0.813 | 0.81 | 0.829 | 0.72
4 | NCI-H1437 | 0.871 | 0.96 | 1.03 | 0.562 | 0.378 | 0.395 | 0.429 | 0.413 | 1.05 | 1.07 | 0.992 | 0.769 | 0.308 | 0.467 | 0.396 | 0.379 | 0.879 | 0.89 | 0.834 | 0.847
5 | NCI-H1755 | 0.935 | 0.908 | 0.767 | 0.516 | 0.681 | 0.481 | 0.553 | 0.508 | 1.04 | 0.93 | 1.01 | 0.689 | 0.432 | 0.468 | 0.465 | 0.353 | 0.711 | 0.74 | 0.794 | 0.552
6 | NCI-H596 | 1.08 | 1.02 | 1.03 | 0.874 | 0.963 | 0.906 | 1.03 | 0.699 | 1.09 | 1.25 | 1.16 | 1.03 | 0.626 | 0.587 | 0.561 | 0.591 | 0.866 | 0.705 | 0.664 | 0.684
7 | EPLC-272H | 0.984 |  | 0.922 | 0.813 | 0.349 | 0.277 | 0.294 | 0.228 | 1.33 |  | 1.06 | 0.972 | 0.436 | 0.329 | 0.274 | 0.267 | 0.297 | 0.291 | 0.304 | 0.336
8 | NCI-H2405 | 0.806 | 0.842 | 0.635 | 0.794 | 0.799 | 0.715 | 0.746 | 0.581 | 0.871 | 0.828 | 0.678 | 0.694 | 0.185 | 0.193 | 0.191 | 0.187 | 0.75 | 0.65 | 0.66 | 0.559
